Laboratory results reported in patent US9770026B2, “Substituted pyrimidine compound and uses thereof” (Shenyang Sinochem Agrochemicals R&D Co., Ltd., priority 2012, dated 2017).

Key:
[1] = test system: cucumber downy mildew; test: protectant activity in vivo against cucumber downy mildew; settings: Cucumis sativus, 168 h, protectant activity; for pest or weed control at 25 µg/mL: read-out: control effect against cucumber downy mildew (%), 25 mg/L; for pest or weed control at 50 µg/mL: read-out: control effect against cucumber downy mildew (%), 50 mg/L; for pest or weed control at 100 µg/mL: read-out: control effect against cucumber downy mildew (%), 100 mg/L; for pest or weed control at 400 µg/mL: read-out: control effect against cucumber downy mildew (%), 400 mg/L
[2] = test system: cucumber gray mold; test: fungicidal activity in vitro (inhibition rate) against cucumber gray mold; format: cell-based; settings: 25 ppm, in vitro; read-out: inhibition rate against cucumber gray mold
[3] = test system: wheat powdery mildew; test: protectant activity in vivo against wheat powdery mildew; settings: Triticum aestivum, 168 h, protectant activity; for pest or weed control at 100 µg/mL: read-out: control effect against wheat powdery mildew (%), 100 mg/L; for pest or weed control at 400 µg/mL: read-out: control effect against wheat powdery mildew (%), 400 mg/L
[4] = test system: Green peach aphids (Myzus Persicae Sulzer); test: bioactivity test against green peach aphid, airbrush foliar spray; format: in vivo; settings: Myzus persicae, foliar, 48 h, contrastive test, read-out: Insecticidal activity against peach aphid (%); for pest or weed control at 600 µg/mL: 600 mg/L; for pest or weed control at 10 µg/mL: 10 mg/L; for pest or weed control at 100 µg/mL: 100 mg/L
Outline: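 Aphids (15-30 per cabbage leaf disc) on moist filter paper were airbrush-sprayed at 10 psi, 0.5 mL, with compound from acetone:methanol (1:1) diluted in water with 0.1% tween 80. Held at 25±1 C, 60±5% RH; survivors counted after 48 hrs to give death rates.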

[5] = test system: Diamond back moth; test: insecticidal activity against diamond back moth, airbrush spray; format: in vivo; settings: 72 h, 600 mg/L
Outline: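 Airbrush leaf-disc spray test: both faces of 2 cm cabbage discs received 0.5 ml of test solution at 0.7 kg/cm^2. Solutions were made in acetone:methanol (1:1) and brought to concentration with 0.1% Tween 80 in water. Ten second-instar larvae per disc, triplicates, were held at 25° C and 60˜70% R.H., with mortality recorded at 72 hrs.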

[6] = test system: corn rust; test: protectant activity in vivo against corn rust; settings: Zea mays, 168 h, protectant activity; for pest or weed control at 6.25 µg/mL: read-out: control effect against corn rust (%), 6.25 mg/L; for pest or weed control at 25 µg/mL: read-out: control effect against corn rust (%), 25 mg/L; for pest or weed control at 100 µg/mL: read-out: control effect against corn rust (%), 100 mg/L; for pest or weed control at 400 µg/mL: read-out: control effect against corn rust (%), 400 mg/L
[7] = test system: armyworm; test: bioactivity test against armyworm, airbrush spray; format: in vivo; settings: 72 h, read-out: Insecticidal activity against armyworm (%); for pest or weed control at 600 µg/mL: 600 mg/L
[8] = test system: carmine spider mite; test: bioactivity test against carmine spider mite, airbrush spray; format: in vivo; settings: for pest or weed control at 600 µg/mL: 600 mg/L
Outline: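 Broadbean seedlings infested with adult mites were sprayed with compound (acetone/methanol stock diluted in 0.1% Tween 80 water) by airbrush at 0.7 kg/cm^2, 0.5 ml. Three replicates were run. Mortality was scored after 72 hrs.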

[9] = Tetranychus cinnabarinus, 72 h, contrastive test, read-out: Insecticidal activity against carmine spider mite (% )

Compound	pest or weed control at 25 µg/mL [1] [%]	pest or weed control at 50 µg/mL [1] [%]	pest or weed control at 100 µg/mL [1] [%]	pest or weed control at 400 µg/mL [1] [%]	inhibition at 25 ppm [2] [%]	pest or weed control at 100 µg/mL [3] [%]	pest or weed control at 400 µg/mL [3] [%]	pest or weed control at 600 µg/mL [4] [%]	pest or weed control at 6.25 µg/mL [6] [%]	pest or weed control at 25 µg/mL [6] [%]	pest or weed control at 100 µg/mL [6] [%]	pest or weed control at 400 µg/mL [6] [%]	pest or weed control at 600 µg/mL [7] [%]	pest or weed control at 600 µg/mL [8, 9] [%]	pest or weed control at 10 µg/mL [4] [%]	pest or weed control at 100 µg/mL [4] [%]	also measured
Cc1ncnc(NCc2ccc(Oc3ccc(C(F)(F)F)cn3)cc2)c1Cl [CK22, reference compound]	60	75	98	100	0	90	100	0	0	40	100	100	0				pest or weed control at 6.25 µg/mL ([3]; read-out: control effect against wheat powdery mildew (%), 6.25 mg/L): 0%; pest or weed control at 25 µg/mL ([3]; read-out: control effect against wheat powdery mildew (%), 25 mg/L): 50%; pest or weed control at 600 µg/mL [5]: 0%
CC(Cl)c1ncnc(NCCc2ccc(Oc3ccc(C(F)(F)F)cn3)cc2)c1Cl (centres unmarked) [CK24, reference compound]					< 50	0	0	100	0	20	50	100		100	89	100	Insecticidal activity against carmine spider mite (% ) ([8]; 2.5 mg/L): 5%; Insecticidal activity against carmine spider mite (% ) ([8]; 5 mg/L): 15%; pest or weed control at 10 µg/mL ([8]; Tetranychus cinnabarinus, 72 h, 10 mg/L, contrastive test, read-out: Insecticidal activity against carmine spider mite (% )): 85%; pest or weed control at 100 µg/mL ([8]; Tetranychus cinnabarinus, 72 h, 100 mg/L, contrastive test, read-out: Insecticidal activity against carmine spider mite (% )): 100%; pest or weed control at 2.5 µg/mL ([4]; 2.5 mg/L): 0%; pest or weed control at 5 µg/mL ([4]; 5 mg/L): 28%; pest or weed control at 10 µg/mL ([7]; 10 mg/L): 0%
CCc1ncnc(NCc2ccc(Oc3ccc(C(F)(F)F)cc3)cc2)c1Cl [CK54, reference compound]	65	80	90	100	0			100	0	30	60	100	67		34	100	
CC(Cl)c1ncnc(NCCc2ccc(Oc3ccc(Cl)nn3)cc2)c1Cl (centres unmarked) [CK62, reference compound]				80	< 50									0			
